Two compounds from publication PMC11981944 (Nature, 2025) can be followed below.

One test concerns SARS-CoV-2. It counts as cell-based.
In test [1] the test system is SARS-CoV-2 (strain BavPat1/2020). In kind it is cell-based.
Another test concerns SARS-CoV-2 B.1.351. In kind it is in vivo. The conditions noted are these: SCID mice, no ritonavir.
The next test has as its system SARS-CoV-2 USA-WA1/2020. Also noted: species or system Syrian hamsters (Mesocricetus auratus). As to conditions: hamster, in vivo.

Structures are written as SMILES. Read-outs that look alike come from different tables or passages of the source.

In the case of `N#C[C@@]1(c2ccc3c(N)ncnn23)O[C@H](CO)[C@@H](O)[C@H]1O` [GS-441524], the “antiviral activity (in words)” value in the test with SARS-CoV-2 is “micromolar range”.
`CC(C)(C)[C@H](NC(=O)C(F)(F)F)C(=O)N1C[C@H]2[C@@H]([C@H]1C(=O)N[C@H](C#N)C[C@@H]1CCNC1=O)C2(C)C` [Nirmatrelvir]: the “DMVs by TEM (in words)” value in test [1] was “no cells producing DMV clusters, virions or concentric membrane stacks could be detected”. The figures for the “antiviral activity in vivo (in words)” value in the test with SARS-CoV-2 B.1.351 (100 mg per kg twice a day) and in the test on SARS-CoV-2 B.1.351 (three-fold higher dose (300 mg per kg twice a day)) were “devoid of antiviral activity” and “effective”, respectively. For the same compound, in the test on SARS-CoV-2 USA-WA1/2020, the “lung parenchyma histology (in words)” value is recorded as “nearly normal”.
